{"source": "paper PMC12002301", "about": "“Discovery and functional characterization of a bombesin-type neuropeptide signaling system in an invertebrate” (Proceedings of the National Academy of Sciences of the …, 2025)", "key": {"tube foot preparations": {"test_system": "tube foot preparations", "details": "cited from earlier work", "protocol": "Based on the expression of ArBNP in the cardiac stomach and tube feet of A. rubens, experiments were performed to investigate effects of ArBN on in vitro preparations of these organs. […] In experiments where cardiac stomach preparations were washed in between application of ArBN at different ..."}, "[1]": {"test_system": "GPCR activated by BN-type neuropeptide", "details": "Branchiostoma japonicum; cited from earlier work", "source_text": "Insights into the evolutionary history of BN-type neuropeptide signaling have been obtained from phylogenetic analysis of genome sequence data. A gene encoding a BN-type neuropeptide precursor was identified in the invertebrate chordate Branchiostoma floridae [subphylum Cephalochordata; ([4])] and, subsequently, experimental characterization of BN-type neuropeptide signaling in the cephalochordate Branchiostoma japonicum has been reported ([24]). A GPCR that is activated by the BN-type neuropeptide DKGQEHWQYGHWY-NH2 was identified. Furthermore, expression of the gene encoding this neuropeptide ..."}, "fundic muscle of mice": {"test_system": "fundic muscle of mice", "details": "cited from earlier work", "source_text": "(§1) The functional characterization of ArBN in A. rubens provides insights into the comparative physiology of BN-type neuropeptide signaling."}, "BB2 receptor (GRP-R)": {"test_system": "BB2 receptor (GRP-R)", "parameters": "method as in PMID 1707129, PMID 1848080, PMID 1671171, PMID 1655761, PMID 31593737", "details": "mammals; cited from earlier work"}, "[2]": {"test_system": "cardiac stomach preparations", "details": "cited from earlier work", "protocol": "Based on the expression of ArBNP in the cardiac stomach and tube feet of A. rubens, experiments were performed to investigate effects of ArBN on in vitro preparations of these organs. […] In experiments where cardiac stomach preparations were washed in between application of ArBN at different ... || Starfish (A. rubens) feed by everting their cardiac stomach out of the mouth over the digestible soft tissues of prey (e.g., mussels) and when feeding is completed, the stomach is retracted back into the central disk region of the body ([45]). […] Discovery of neuropeptides that exert excitatory or inhibitory effects on the cardiac stomach in vitro is of interest with respect to the unusual feeding behavior of A. rubens and other starfish. When starfish feed on bivalve mollusks such as mussels, they use the collective pulling power of tube feet loca ..."}, "[3]": {"test_system": "everted cardiac stomach of A. rubens", "assay": "In vivo retraction of everted cardiac stomach", "parameters": "species or system Asterias rubens", "details": "10 µL of 10^-4 M injected, words", "source_text": "Therefore, we performed experiments to investigate whether ArBN causes cardiac stomach retraction in A. rubens when injected in vivo. A description of the methods employed for investigation of in vivo effects of ArBN on the everted cardiac stomach of A. rubens is included in SI Appendix, SI Methods. […]\nfoot preparations. Having determined that ArBN had effects on preparations when tested at a high concentration (10^-6 M), then dose-response data for this peptide were obtained with final concentrations in the organ bath ranging from 10^-10 M to 10^-6 M. Two types of tests were performed when obtaining dose-response data for ArBN:\nTest type 1: Here the preparation was washed thoroughly with seawater after adding ArBN to the organ at different concentrations. […]\nThe contraction effect of NGFFYamide (10^-7 M) or ACh (10^-5 M) was defined as 100% and the effects of ArBN were calculated as a percentage of the effect of NGFFYamide or ACh. […]\nAnalysis of the in vivo effects of ArBN on the everted cardiac stomach of A. rubens The physiological status of the starfish (~8 cm in diameter) tested was normalized by a 7-day starvation period. […] Then, the starfish was firstly injected with 10 µl of distilled water (negative control) and video recorded using a camera (Canon EOS 700D) for 7 min. Then, the same starfish was injected with NGFFYamide (positive control) or ArBN and video recorded for 7 min. […]"}, "[4]": {"test_system": "A. rubens feeding behavior", "details": "vs water; cited from earlier work", "protocol": "Based on the effects of NGFFYamide, ArSK/CCK1, and ArSK/CCK2 in triggering a process associated with termination of feeding behavior—cardiac stomach retraction—the effects of neuropeptides on feeding behavior of starfish have also been investigated. In these experiments starfish were starved and then presented with prey (a mussel) in a testing tank and the time taken to touch, enclose, and then consume the mussel was measured."}, "[5]": {"test_system": "everted cardiac stomach of A. rubens", "details": "cited from earlier work", "source_text": "Starfish (A. rubens) feed by everting their cardiac stomach out of the mouth over the digestible soft tissues of prey (e.g., mussels) and when feeding is completed, the stomach is retracted back into the central disk region of the body ([45]). […] Discovery of neuropeptides that exert excitatory or inhibitory effects on the cardiac stomach in vitro is of interest with respect to the unusual feeding behavior of A. rubens and other starfish. When starfish feed on bivalve mollusks such as mussels, they use the collective pulling power of tube feet loca ..."}, "BB1 receptor (NMB-R)": {"test_system": "BB1 receptor (NMB-R)", "details": "mammals; cited from earlier work", "source_text": "BN-type neuropeptides exert their effects by binding to GPCRs. In mammals, NMB and GRP act as high affinity ligands for the BB1 receptor (NMB-R) and the BB2 receptor (GRP-R), respectively, and orthologs of these receptors have been identified in nonmammalian vertebrates ([20]–[24]). […] BN-type neuropeptides are involved in regulation of a variety of physiological and behavioral processes in mammals/vertebrates, including t ..."}, "[6]": {"test_system": "intestinal smooth muscle from caimans", "details": "cited from earlier work", "source_text": "as §1"}}, "note": "“Also recorded” adds a separate entry of the source. Ends that are not written are not given here."}
{"molecule": "CC(=O)OCC[N+](C)(C)C", "note": "[ACh, acetylcholine]", "values": [{"measurement": "effect on tube foot preparations in vitro", "setting": "tube foot preparations", "result": "causes contraction of tube foot preparations in vitro"}]}
{"molecule": "DKGQEHWQYGHWY-NH2 [BN-type neuropeptide of the cephalochordate Branchiostoma japonicum]", "values": [{"measurement": "GPCR activation", "setting": "[1]", "result": "activated"}]}
{"molecule": "GRP: BN-like peptide identified in the porcine gut (APVSVGGGTVLAKMYPRGNHWAVGHLM; ends and bridges not checked; UniProt P63153 24-50, looked up)", "values": [{"measurement": "contraction of fundic muscle", "setting": "fundic muscle of mice", "result": "dose-dependent contraction"}, {"measurement": "affinity for BB2 receptor (GRP-R)", "setting": "BB2 receptor (GRP-R)", "result": "high affinity"}]}
{"molecule": "NGFFYamide [positive control]", "values": [{"measurement": "effect on cardiac stomach preparations in vitro", "setting": "[2]", "result": "causes contraction of cardiac stomach preparations in vitro; also recorded: triggers cardiac stomach contraction in vitro; also recorded: cause cardiac stomach contraction in vitro"}, {"measurement": "cardiac stomach retraction", "setting": "[3]", "result": "caused cardiac stomach retraction"}, {"measurement": "time taken to enclose a mussel", "setting": "[4]", "result": "increase in the time taken for starfish to touch and enclose a mussel"}, {"measurement": "time taken to touch a mussel", "setting": "[4]", "result": "increase in the time taken for starfish to touch"}, {"measurement": "cardiac stomach retraction in vivo", "setting": "[5]", "result": "retraction in vivo; also recorded: trigger retraction of the everted cardiac stomach"}]}
{"molecule": "NMB: ranatensin-like peptide identified in the porcine spinal cord", "values": [{"measurement": "affinity for BB1 receptor (NMB-R)", "setting": "BB1 receptor (NMB-R)", "result": "high affinity"}, {"measurement": "contraction of fundic muscle", "setting": "fundic muscle of mice", "result": "dose-dependent contraction"}]}
{"molecule": "pQQRLGNQWAVGHLM-NH2 [BN, peptide first isolated from the skin of the frog Bombina bombina]", "values": [{"measurement": "effect on intestinal smooth muscle", "setting": "[6]", "result": "excitatory effect"}]}
